EP4740948A1 (Dong Wha Pharm. Co., Ltd., priority 2023, dated 2025)

How the values were obtained:
NCI-H1299 cells = experiment: Cancer cell proliferation inhibition (Cell Counting Kit-8), lung cancer cell line; type: cell-based; conditions: 1000 nM, cultured seven to 11 days; for inhibition at 1 µM: Homo sapiens, NCI-H1299, 264 h, read-out: % inhibition rate NCI-H129 9
Method in brief: (§1)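 Cells seeded at 100-1,000/well in medium with 10% FBS and treated with 1000 nM test substance for 7-11 days. Viability measured with Cell Counting Kit-8; % inhibition = {1−(test/control)} × 100.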

MKN-45 cells = experiment: Cancer cell proliferation inhibition (Cell Counting Kit-8), gastric cancer cell line; type: cell-based; conditions: 1000 nM, cultured seven to 11 days; for inhibition at 1 µM: Homo sapiens, MKN-45, 264 h, read-out: % inhibition rate MKN -45
Method in brief: (§2)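 Cells grown in RPMI1640, McCoy's 5a, L-15 or DMEM with 10% FBS, seeded at 100 to 1,000 cells/well and treated with test substance at 1000 nM for 7 to 11 days. Viability read by CCK-8; % inhibition = {1−(test/control)} × 100.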

EZH1 = EZH1 (Homo sapiens, UniProt Q92800); experiment: AlphaLISA enzyme activity inhibition, EZH1; type: biochemical; conditions: for inhibition at 0.005 µM: 5nM test substance
Procedure: (§3) In order to confirm the EZH1 and/or EZH2 activity inhibitory effect of the 1,3-benzodioxole derivative compounds represented by chemical formula I of the present invention, the activity was measured using an AlphaLISA test method. The test substance dissolved in dimethylsulfoxide (DMSO) was diluted in a test solution (20 mM Tris pH 8.0, 0.1% BSA, 0.01% Triton X-100, 0.5 mM DTT) according to a final treatment concentration (5 nM or 10 nM) and mixed with EZH1 and EZH2, respectively, and then histone H3 peptide and S-adenosylmethionine (SAM) were added to initiate an enzyme reaction. An acceptor bead was added thereto after reaction for two hours and subjected to an additional reaction for one hour, after which a donor bead was added thereto. After an additional reaction for 30 minutes, the reaction was completed. An activity was measured using the Magellan program on a Spark10M instrument. DMSO was used as a control group, an inhibition rate of enzyme activity was calculated using a following equation, and the results thereof are shown in Table 1 below. [formula]

Lovo cells = experiment: Cancer cell proliferation inhibition (Cell Counting Kit-8), colorectal cancer cell line; type: cell-based; conditions: 1000 nM, cultured seven to 11 days; for inhibition at 1 µM: Homo sapiens, LoVo, 264 h, read-out: % inhibition rate LoVo
Method in brief: as §1

G401 cells = experiment: Cancer cell proliferation inhibition (Cell Counting Kit-8), rhabdoid tumor cell line; type: cell-based; conditions: 1000 nM, cultured seven to 11 days; for inhibition at 1 µM: Homo sapiens, G-401, 264 h, read-out: % inhibition rate G401
Method in brief: as §2

MIA-PaCa-2 cells = experiment: Cancer cell proliferation inhibition (Cell Counting Kit-8), pancreatic cancer cell line; type: cell-based; conditions: 1000 nM, cultured seven to 11 days; for inhibition at 1 µM: Homo sapiens, MIA PaCa-2, 264 h, read-out: % inhibition rate MIA-Paca2
Method in brief: as §1

EZH2 = EZH2 (Homo sapiens, UniProt Q15910); experiment: AlphaLISA enzyme activity inhibition, EZH2; type: biochemical
Procedure: as §3

SW-13 cells = experiment: Cancer cell proliferation inhibition (Cell Counting Kit-8), adrenal cancer cell line; type: cell-based; conditions: 1000 nM, cultured seven to 11 days; for inhibition at 1 µM: Homo sapiens, SW13, 264 h, read-out: % inhibition rate SW-13
Method in brief: as §1

EZH2, sequence (Q15910 whole entry, species assumed): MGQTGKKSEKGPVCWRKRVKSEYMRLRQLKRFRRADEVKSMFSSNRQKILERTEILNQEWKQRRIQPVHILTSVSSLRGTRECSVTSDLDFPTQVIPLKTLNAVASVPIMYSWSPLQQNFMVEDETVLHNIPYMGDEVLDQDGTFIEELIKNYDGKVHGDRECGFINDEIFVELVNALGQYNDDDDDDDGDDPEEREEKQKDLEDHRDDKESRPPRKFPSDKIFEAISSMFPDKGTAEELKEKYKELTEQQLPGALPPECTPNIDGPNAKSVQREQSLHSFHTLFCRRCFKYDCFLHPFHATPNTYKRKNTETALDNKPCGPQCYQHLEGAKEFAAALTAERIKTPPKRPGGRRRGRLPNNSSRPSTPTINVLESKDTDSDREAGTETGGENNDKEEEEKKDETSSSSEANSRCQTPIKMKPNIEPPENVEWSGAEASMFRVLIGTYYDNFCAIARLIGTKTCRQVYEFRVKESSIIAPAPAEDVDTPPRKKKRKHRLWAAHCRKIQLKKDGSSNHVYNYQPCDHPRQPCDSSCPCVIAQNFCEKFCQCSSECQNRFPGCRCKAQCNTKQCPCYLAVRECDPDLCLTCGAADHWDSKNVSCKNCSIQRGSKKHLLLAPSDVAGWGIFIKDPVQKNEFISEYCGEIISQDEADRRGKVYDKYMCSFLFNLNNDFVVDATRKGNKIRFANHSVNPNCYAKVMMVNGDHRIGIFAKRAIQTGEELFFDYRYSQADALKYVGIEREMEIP
EZH2, sequence (O75530 whole entry partner, species assumed): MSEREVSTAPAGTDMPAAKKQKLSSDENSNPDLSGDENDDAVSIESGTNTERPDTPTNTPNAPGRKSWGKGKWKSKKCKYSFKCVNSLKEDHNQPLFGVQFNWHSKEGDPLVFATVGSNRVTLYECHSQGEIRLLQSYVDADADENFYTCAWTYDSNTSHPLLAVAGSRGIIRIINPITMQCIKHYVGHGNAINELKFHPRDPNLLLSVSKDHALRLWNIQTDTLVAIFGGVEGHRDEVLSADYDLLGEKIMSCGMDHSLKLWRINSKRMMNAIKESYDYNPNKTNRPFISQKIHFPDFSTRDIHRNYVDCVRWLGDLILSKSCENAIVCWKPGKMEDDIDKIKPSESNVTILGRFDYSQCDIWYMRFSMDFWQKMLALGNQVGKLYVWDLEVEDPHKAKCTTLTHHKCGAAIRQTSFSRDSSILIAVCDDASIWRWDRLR
EZH2, sequence (Q15022 whole entry partner, species assumed): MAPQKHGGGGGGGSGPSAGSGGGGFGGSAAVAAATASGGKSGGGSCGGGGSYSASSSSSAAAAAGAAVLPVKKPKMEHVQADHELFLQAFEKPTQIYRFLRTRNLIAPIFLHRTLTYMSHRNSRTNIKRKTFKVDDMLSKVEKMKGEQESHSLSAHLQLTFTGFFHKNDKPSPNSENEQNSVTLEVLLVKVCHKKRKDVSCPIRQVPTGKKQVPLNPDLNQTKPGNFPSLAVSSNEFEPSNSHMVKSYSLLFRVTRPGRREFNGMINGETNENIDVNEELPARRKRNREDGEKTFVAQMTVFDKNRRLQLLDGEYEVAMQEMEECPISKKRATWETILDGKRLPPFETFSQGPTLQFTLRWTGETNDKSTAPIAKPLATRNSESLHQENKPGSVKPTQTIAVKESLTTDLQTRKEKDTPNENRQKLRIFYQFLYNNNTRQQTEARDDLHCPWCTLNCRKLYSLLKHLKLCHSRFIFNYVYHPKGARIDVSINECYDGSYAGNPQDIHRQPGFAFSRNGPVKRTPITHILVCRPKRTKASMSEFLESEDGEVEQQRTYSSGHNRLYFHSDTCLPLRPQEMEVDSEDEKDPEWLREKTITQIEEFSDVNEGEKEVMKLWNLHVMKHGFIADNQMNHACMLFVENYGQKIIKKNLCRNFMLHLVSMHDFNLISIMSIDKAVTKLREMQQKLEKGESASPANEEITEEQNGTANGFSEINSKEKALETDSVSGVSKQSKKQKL
EZH1, sequence (Q92800 whole entry, species assumed): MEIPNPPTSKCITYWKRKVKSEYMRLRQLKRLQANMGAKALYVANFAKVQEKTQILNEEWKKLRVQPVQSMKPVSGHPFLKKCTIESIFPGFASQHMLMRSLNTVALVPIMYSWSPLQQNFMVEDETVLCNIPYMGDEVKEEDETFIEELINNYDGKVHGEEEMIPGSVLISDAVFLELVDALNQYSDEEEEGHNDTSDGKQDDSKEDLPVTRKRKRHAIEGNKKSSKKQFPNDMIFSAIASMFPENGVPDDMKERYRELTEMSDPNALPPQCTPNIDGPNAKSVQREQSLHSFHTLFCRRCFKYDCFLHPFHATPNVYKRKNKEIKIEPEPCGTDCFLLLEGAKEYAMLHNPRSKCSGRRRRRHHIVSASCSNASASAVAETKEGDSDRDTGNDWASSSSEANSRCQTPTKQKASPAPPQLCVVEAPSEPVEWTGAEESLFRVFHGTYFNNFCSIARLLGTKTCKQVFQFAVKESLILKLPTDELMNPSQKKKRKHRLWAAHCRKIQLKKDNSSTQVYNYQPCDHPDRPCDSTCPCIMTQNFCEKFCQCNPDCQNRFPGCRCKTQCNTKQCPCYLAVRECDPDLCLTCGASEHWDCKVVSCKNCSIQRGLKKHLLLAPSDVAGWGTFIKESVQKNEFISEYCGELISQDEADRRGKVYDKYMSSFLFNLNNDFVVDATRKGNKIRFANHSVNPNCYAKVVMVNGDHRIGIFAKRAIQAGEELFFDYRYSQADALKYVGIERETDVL
EZH1, sequence (O75530 whole entry partner, species assumed): as the sequence (O75530 whole entry partner, species assumed) above
EZH1, sequence (Q15022 whole entry partner, species assumed): as the sequence (Q15022 whole entry partner, species assumed) above

Row | SMILES | inhibition at 1 µM (NCI-H1299 cells) [%] | inhibition at 1 µM (MKN-45 cells) [%] | inhibition at 0.005 µM (EZH1) [%] | inhibition at 0.01 µM (EZH1; 10nM test substance) [%] | % inhibition rate G401 (G401 cells; 1 µM) | inhibition at 1 µM (MIA-PaCa-2 cells) [%] | inhibition at 0.005 µM (EZH2; 5nM test substance) [%] | inhibition at 0.01 µM (EZH2; 10nM test substance) [%] | inhibition at 1 µM (SW-13 cells) [%] | inhibition at 1 µM (Lovo cells) [%] | inhibition at 1 µM (G401 cells) [%] | other results
1 | CSc1cc(C)[nH]c(=O)c1CNC(=O)c1cc(-c2ccc(N3C[C@@H](C)O[C@@H](C)C3)nc2)c2c(c1C)OC(C)([C@H]1CC[C@H](N3CC(OCC(F)F)C3)CC1)O2 (stereo partly drawn) [Compound 104, 2-(trans-4-(3-(2,2-difluoroethoxy)azetidin-1-yl)cyclohexyl)-7-(6-((2S,6R)-2,6-dimethylmorpholino)pyridin-3-yl)-2,4-dimethyl-N-((6-methyl-4-(methylthio)-2-oxo-1,2-dihydropyridin-3-yl)methyl)benzo[d][1,3]dioxole-5-carboxamide] | – | – | – | – | – | – | – | – | – | – | – | % inhibition rate NCI-H129 9 (NCI-H1299 cells): + (+: ≤30%); % inhibition rate MKN -45 (MKN-45 cells; 1 µM): ++ (++: more than 30% and less than 70%); Enzyme inhibition % EZH1 (EZH1; 10nM test substance, 0.01 µM): 19.9%; % inhibition rate LoVo (Lovo cells): +++ (+++: ≥70%); % inhibition rate G401 (G401 cells): +++ (+++: ≥70%); % inhibition rate MIA-Paca2 (MIA-PaCa-2 cells; 1 µM): + (+: ≤30%); Enzyme inhibition % EZH2 (EZH2; 5nM test substance, 0.005 µM): 37.0%; Enzyme inhibition % EZH2 (EZH2; 10nM test substance, 0.01 µM): 82.6%; % inhibition rate SW-13 (SW-13 cells; 1 µM): ++ (++: more than 30% and less than 70%)
2 | CSc1cc(C)[nH]c(=O)c1CNC(=O)c1cc(-c2ccc(N3CCOCC3)nc2)c2c(c1C)OC(C)(C1CCN(CC(F)(F)F)CC1)O2 (single isomer, unassigned) [Compound 62, 2,4-dimethyl-N-((6-methyl-4-(methylthio)-2-oxo-1,2-dihydropyridin-3-yl)methyl)-7-(6-morpholinopyridin-3-yl)-2-(1-(2,2,2-trifluoro)piperidin-4-yl)benzo[d][1,3]dioxole-5-carboxamide] | 30 to 70 | 30 to 70 | 66.9 | 81.8 | +++ (+++: ≥70%) | ≤ 30 | 93.6 | 99.4 | 30 to 70 | – | – | % inhibition rate LoVo (Lovo cells; 1 µM): +++ (+++: ≥70%)
3 | CSc1cc(C)[nH]c(=O)c1CNC(=O)c1cc(-c2cnc(N3CCCCC3)nc2)c2c(c1C)OC(C)([C@H]1CC[C@H](N(C)C)CC1)O2 (relative stereo) [Compound 4, 2-(trans-4-(dimethylamino)cyclohexyl)-2,4-dimethyl-N-((6-methyl-4-(methylthio)-2-oxo-1,2-dihydropyridin-3-yl)methyl)-7-(2-(piperidin-1-yl)pyrimidin-5-yl)benzo[d][1,3]dioxole-5-carboxamide] | ≤ 30 | ≤ 30 | 74 | – | – | ≤ 30 | 77.4 | – | 30 to 70 | ≥ 70 | 30 to 70 | –
4 | CSc1cc(C)[nH]c(=O)c1CNC(=O)c1cc(-c2ccc(N3CCOCC3)nc2)c2c(c1C)OC(C)(C1CCN(CC(F)(F)F)CC1)O2 (stereo not shown) [Compound 61, 2,4-dimethyl-N-((6-methyl-4-(methylthio)-2-oxo-1,2-dihydropyridin-3-yl)methyl)-7-(6-morpholinopyridin-3-yl)-2-(1-(2,2,2-trifluoro)piperidin-4-yl)benzo[d][1,3]dioxole-5-carboxamide] | 30 to 70 | 30 to 70 | 53 | 78.2 | – | ≤ 30 | 86.5 | 99.4 | ≤ 30 | ≥ 70 | ≥ 70 | –
5 | CSc1cc(C)[nH]c(=O)c1CNC(=O)c1cc(-c2ccc3c(c2)OCO3)c2c(c1C)OC(C)(C1CCN(CC(F)F)CC1)O2 (stereo not shown) [Compound 95, 2-(1-(2,2-difluoroethyl)piperidin-4-yl)-2,7-dimethyl-N-((6-methyl-4-(methylthio)-2-oxo-1,2-dihydropyridin-3-yl)methyl)-[4,5'-bibenzo[d][1,3]dioxole]-6-carboxamide] | ≤ 30 | 30 to 70 | 38.1 | 46 | – | ≤ 30 | 83.2 | 91.1 | ≤ 30 | ≥ 70 | ≥ 70 | –
6 | CCN1CCC(C2(C)Oc3c(-c4ccc(N5CCOCC5)nc4)cc(C(=O)NCc4c(SC)cc(C)[nH]c4=O)c(C)c3O2)CC1 (single isomer, unassigned) [Compound 66, 2-(1-ethylpiperidin-4-yl)-2,4-dimethyl-N-((6-methyl-4-(methylthio)-2-oxo-1,2-dihydropyridin-3-yl)methyl)-7-(6-morpholinopyridin-3-yl)benzo[d][1,3]dioxole-5-carboxamide] | ≤ 30 | 30 to 70 | 81.3 | 90.9 | +++ (+++: ≥70%) | ≤ 30 | 99.3 | 99.6 | ≤ 30 | 30 to 70 | – | –
7 | CCN1CCC(C2(C)Oc3c(-c4cnc(N(C)CC)nc4)cc(C(=O)NCc4c(SC)cc(C)[nH]c4=O)c(C)c3O2)CC1 (single isomer, unassigned) [Compound 83, 7-(2-(ethyl(methyl)amino)pyrimidin-5-yl)-2-(1-ethylpiperidin-4-yl)-2,4-dimethyl-N-((6-methyl-4-(methylthio)-2-oxo-1,2-dihydropyridin-3-yl)methyl)benzo[d][1,3]dioxole-5-carboxamide] | ≤ 30 | ≤ 30 | 45.3 | 78.8 | +++ (+++: ≥70%) | ≤ 30 | 99.2 | 99.4 | 30 to 70 | – | – | % inhibition rate LoVo (Lovo cells; 1 µM): +++ (+++: ≥70%)
8 | CSc1cc(C)[nH]c(=O)c1CNC(=O)c1cc(-c2ccc3c(c2)OCO3)c2c(c1C)OC(C)(C1CCN(CC(F)(F)F)CC1)O2 (stereo not shown) [Compound 94, 2,7-dimethyl-N-((6-methyl-4-(methylthio)-2-oxo-1,2-dihydropyridin-3-yl)methyl)-2-(1-(2,2,2-trifluoroethyl)piperidin-4-yl)-[4,5'-bibenzo[d][1,3]dioxole]-6-carboxamide] | ≤ 30 | ≤ 30 | 25.3 | 28.5 | – | ≤ 30 | 65.1 | 82 | ≤ 30 | ≥ 70 | ≤ 30 | –
9 | CSc1cc(C)[nH]c(=O)c1CNC(=O)c1cc(-c2ccc3c(c2)OC(F)(F)O3)c2c(c1C)OC(C)(C1CCN(CC(F)(F)F)CC1)O2 (stereo not shown) [Compound 93, 2',2'-difluoro-2,7-dimethyl-N-((6-methyl-4-(methylthio)-2-oxo-1,2-dihydropyridin-3-yl)methyl)-2-(1-(2,2,2-trifluoroethyl)piperidin-4-yl)-[4,5'-bibenzo[d][1,3]dioxole]-6-carboxamide] | ≤ 30 | ≤ 30 | 16.8 | 12.7 | – | ≤ 30 | 32.2 | 37.9 | 30 to 70 | ≥ 70 | ≤ 30 | –
10 | CSc1cc(C)[nH]c(=O)c1CNC(=O)c1cc(-c2ccc3occc3c2)c2c(c1C)OC(C)(C1CCN(CC(F)(F)F)CC1)O2 (stereo not shown) [Compound 96, 7-(benzofuran-5-yl)-2,4-dimethyl-N-((6-methyl-4-(methylthio)-2-oxo-1,2-dihydropyridin-3-yl)methyl)-2-(1-(2,2,2-trifluoroethyl)piperidin-4-yl)benzo[d][1,3]dioxole-5-carboxamide] | ≤ 30 | ≤ 30 | 19.2 | 14.8 | – | ≤ 30 | 58.4 | 78 | ≤ 30 | ≥ 70 | ≤ 30 | –
